Tests used:
MDA MB 231 = assay: Cytotoxicity propidium iodide assay, MDA MB 231; format: cell-based; details: Homo sapiens; MDA MB 231 (breast), 48 hours treatment; read-out: IC50 Values in μM, C3a
MDA MB 468 = assay: Cytotoxicity propidium iodide assay, MDA MB 468; format: cell-based; details: Homo sapiens; MDA MB 468 (breast), 48 hours treatment; read-out: IC50 Values in μM, C3b
In short: (§1)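 Cells were seeded at 3000/well and allowed 18-24 h at 37 °C/5% CO2, then exposed to a compound dilution series for 48 h. After a PBS wash, propidium iodide was added and plates were frozen overnight, thawed and read by fluorescence. Viability was normalised to untreated wells (100%), and IC50 came from the plotted percentages.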

LN229 = assay: Cytotoxicity propidium iodide assay, LN229; format: cell-based; details: Homo sapiens, LN-229; LN229 (glioblastoma), 48 hours treatment; read-out: IC50 Values in μM, C5a
Procedure: (§2) The assay was designed as in the reference, Anticancer Drugs, 2002, 13, 1-8, the disclosure of which is incorporated herein by reference for the teaching of the assay.
(§3) Cells from cell lines (ATCC) as mentioned in the table given below were seeded at a density of 3000 cells/well in a white opaque 96-well plate. Following incubation at 37° C./5% CO2 for a period of 18-24 hours, the cells were treated with various concentrations (stock solution was prepared in DMSO and subsequent dilutions were made in media as per ATCC guidelines) of the compounds of the present invention for a period of 48 hours. At the end of treatment, the culture medium was discarded, the cells were washed with 1×PBS and 200 μL of […] propidium iodide was added to each well. The plates were frozen at 70° C. overnight. For analysis, the plates were warmed to RT, allowed to thaw and were read in PoleStar fluorimeter with the fluorescence setting. The percentage of viable cells in the non-treated set of wells was considered to be 100 and the percentage viability following treatment was calculated accordingly. IC50 values were calculated from graphs plotted using these percentages. IC50 values for certain compounds of present invention are depicted in Table 1 and % Inhibition of certain compounds of present invention are depicted in Table 2.

KU812/SR = assay: Cytotoxicity propidium iodide assay, KU812/SR; format: cell-based; details: Homo sapiens; KU812/SR (CML), 48 hours treatment; read-out: IC50 Values in μM, C6c
In short: as §1

[1] = system: human PC3 xenograft tumors; assay: Prostate cancer xenograft model (tumor growth inhibition in vivo); parameters: species or system mouse; details: SCID mice, 3 mpk p.o. (Example 3a once daily and BID; Example 19 once daily), 15 days; FIG. 3A
Procedure: Animals: Severe combined immunodeficient (SCID) mice (Male and Female) 6 to 8 weeks old, were used. Animals were housed in suitable cages under specified pathogen-free conditions in rooms maintained at 23° C. and 50% humidity, with a 12-hour light/12-hour dark cycle. The mice were quarantined during the acclimatization period of at least a week.
Prostate cancer xenograft model: PC3 (human prostate cancer) cell line (ATCC) was maintained in RPMI 1640 (Gibco BRL, Pasley, UK) supplemented with 10% (v/v) FBS. The cells were incubated at 37° C. in a humidified atmosphere containing 5% CO2. Cells were passaged using trypsin/EDTA for cell detachment once every 3 days. On the day of tumor cell injection, cells were detached from the flasks with trypsin/EDTA, washed once in medium and re-suspended in serum free RPMI 1640 at 5 million cells/0.2 mL volume, and placed on ice. […]
Procedure: Tumor-bearing mice were randomized (n=7 per group) in four groups when the mean tumor volume was ˜100 mm^3. […] Twice a week, each xenograft was measured in two dimensions (a=length; b=width) with a caliper. Tumor volume (V) was determined by the following equation: V=ab^2/2
Tumor volumes were converted into tumor weights assuming a tumor density of 1 mm^3=1 mg. Tumor growth inhibition (TGI) for each group was calculated according to the following formula: […]

U 87 MG = assay: Cytotoxicity propidium iodide assay, U 87 MG; format: cell-based; details: Homo sapiens; U 87 MG (glioblastoma), 48 hours treatment; read-out: IC50 Values in μM, C5c
Procedure: as §2
as §3, with “The plates were frozen at 70° C. overnight.” left out

SMILES | IC50 (MDA MB 231) | IC50 (MDA MB 468) | IC50 (LN229) | IC50 (KU812/SR) | Tumor growth in-vivo, PC3 xenograft [1] | IC50 (U 87 MG)
Cn1c(=O)n(-c2ccc(C(C)(C)C#N)nc2)c2c3cc(-c4cnc5ccccc5c4)ccc3ncc21 [Example 2, 2-Methyl-2-(5-(3-methyl-2-oxo-8-(quinolin-3-yl)-2,3-dihydro-1H-imidazo[4,5-c]quinolin-1-yl)pyridin-2-yl)propanenitrile] | 0.07 µM | 0.3 µM | 0.55 µM |  |  | 
Cn1c(=O)n(-c2ccc(C(C)(C)C#N)nc2)c2c3cc(-c4cnc(N)c(C(F)(F)F)c4)ccc3ncc21 [Example 3, 2-(5-(8-(6-Amino-5-(trifluoromethyl)pyridin-3-yl)-3-methyl-2-oxo-2,3-dihydro-1H-imidazo[4,5-c]quinolin-1-yl)pyridin-2-yl)-2-methylpropanenitrile] | 0.014 µM | 0.06 µM | 0.056 µM | 0.19 µM |  | 
CS(=O)(=O)O.Cn1c(=O)n(-c2ccc(C(C)(C)C#N)nc2)c2c3cc(-c4cnc(N)c(C(F)(F)F)c4)ccc3ncc21 [Example 3a, 8-(6-Amino-5-(trifluoromethyl)pyridin-3-yl)-1-(6-(2-cyanopropan-2-yl)pyridin-3-yl)-3-methyl-2-oxo-2,3-dihydro-1H-imidazo[4,5-c]quinolin-5-ium methanesulfonate] |  |  |  |  | effectively inhibit tumor growth in-vivo | 
CC(C)(C#N)c1ccc(-n2c(=O)n(CC#N)c3cnc4ccc(-c5cnc(N)c(C(F)(F)F)c5)cc4c32)cn1 [Example 16, 2-(5-(8-(6-Amino-5-(trifluoromethyl)pyridin-3-yl)-3-(cyanomethyl)-2-oxo-2,3-dihydro-1H-imidazo[4,5-c]quinolin-1-yl)pyridin-2-yl)-2-methylpropanenitrile] | 0.07 µM | 0.013 µM | 0.65 µM | 0.19 µM |  | 7.75 µM
COc1ccc(-n2c(=O)n(C)c3cnc4ccc(-c5cnc(N)c(C(F)(F)F)c5)cc4c32)cn1 [Example 19, 8-(6-Amino-5-(trifluoromethyl)pyridin-3-yl)-1-(6-methoxypyridin-3-yl)-3-methyl-1H-imidazo[4,5-c]quinolin-2(3H)-one] | 0.17 µM | 0.18 µM | 0.096 µM | 0.06 µM | effectively inhibit tumor growth in-vivo | 3.88 µM

Reference: patent publication US20130310374A1, “Substituted Imidazoquinoline Derivatives” (PIRAMAL ENTERPRISES LIMITED`, priority 2010, published 2013)
